# Source: BindingDB's records for doi:10.1002/cbic.201600655 (University At Albany, 2017)
# pIC50: −log10 of the molar value.
# Biological target: NAD-dependent protein deacylase sirtuin-6 (Homo sapiens, UniProt Q8N6T7)
# Assay: Fluorimetric Assay
# Protocol: Inhibitory constants (Ki) and IC50 values were determined under saturating substrate conditions by using a fluorimetric assay (components were purchased separately). […] Sirtuin deacetylation of the substrate renders the fluorophore-substrate bond susceptible to treatment with […]. Trypsin cleavage releases the fluorophore, resulting in an increase in fluorescence. Fluorescence intensity was measured on a Synergy HT Multi-Mode microplate fluorescence reader.
# Chain of NAD-dependent protein deacylase sirtuin-6 (Q8N6T7 whole entry): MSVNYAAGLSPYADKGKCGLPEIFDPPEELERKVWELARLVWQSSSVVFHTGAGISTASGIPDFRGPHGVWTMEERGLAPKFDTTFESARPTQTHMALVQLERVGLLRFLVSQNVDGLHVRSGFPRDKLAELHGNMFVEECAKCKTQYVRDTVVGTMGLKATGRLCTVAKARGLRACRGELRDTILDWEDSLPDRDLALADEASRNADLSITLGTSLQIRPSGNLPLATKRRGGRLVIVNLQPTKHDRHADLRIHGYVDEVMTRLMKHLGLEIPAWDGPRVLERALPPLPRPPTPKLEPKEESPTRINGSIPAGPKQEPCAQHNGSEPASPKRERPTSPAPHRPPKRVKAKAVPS
row,pIC50,Compound
1,3.03,O=C(O)c1cnccn1
2,3.38,NC(=O)c1cnccn1 [Pyrazinamide]
